{"source": "paper PMC10699038", "about": "“Identifying molecular tags selectively retained on the surface of brain endothelial cells to generate artificial targets for therapy delivery” (Fluids and Barriers of the CNS, 2023)", "system": "b.End3 cells", "experiment": "Peptide-mediated protein (avidin-FITC/albumin-FITC) delivery to b.End3 cells", "assay_type": "cell-based, mouse", "conditions": "N-terminal biotin peptide, increasing concentrations, 1 h, 4 °C, avidin-FITC 50 µg/mL, 30 min, fluorescence, 3 independent experiments, triplicate", "experimental": "Confluent endothelial monolayers were treated with increasing peptide concentrations in HBSS (1 h at 4 °C, unless otherwise stated). After removing unbound peptide, cells were either incubated in appropriate cell culture medium (37 °C) for varying time-points, or directly treated with neutravidin-FITC or albumin-FITC (0.83 mM, in HBSS, 30 min at 4 °C). After removing unbound protein with thorough HBSS washes, fluorescence (490/525 em/ex) was quantified with a Spark multimode microplate reader (Tecan) or imaged through confocal microscopy (Additional file 1: Diagram S1a–c).", "data": [{"substance": "HAIYPRH [Tf peptide]", "values": [{"measurement": "Avidin delivery to b.End3 cells", "value": "lower avidin delivery than CFAG"}]}]}
